biological target: T1, human CH24H (Homo sapiens, UniProt Q9Y6A2); test: Measurement of CH24H inhibitory activity (24-HC produced from [14C] cholesterol by human CH24H lysate); assay type: biochemical; details: 1 μM test compound, [14C] cholesterol 15 μM, 37° C. for 5 hr, read-out: Inhibitory Rate in 1 μM (%)
T1 construct: Using Full-Length Mammalian Gene Collection No. 4819975 (Invitrogen) as a template; made in house; host or cells: FreeStyle 293-F cells, transient transfection with pcDNA3.1(+)/hCH24H; lysate supernatant, not purified
T1 sequence (Q9Y6A2 whole entry): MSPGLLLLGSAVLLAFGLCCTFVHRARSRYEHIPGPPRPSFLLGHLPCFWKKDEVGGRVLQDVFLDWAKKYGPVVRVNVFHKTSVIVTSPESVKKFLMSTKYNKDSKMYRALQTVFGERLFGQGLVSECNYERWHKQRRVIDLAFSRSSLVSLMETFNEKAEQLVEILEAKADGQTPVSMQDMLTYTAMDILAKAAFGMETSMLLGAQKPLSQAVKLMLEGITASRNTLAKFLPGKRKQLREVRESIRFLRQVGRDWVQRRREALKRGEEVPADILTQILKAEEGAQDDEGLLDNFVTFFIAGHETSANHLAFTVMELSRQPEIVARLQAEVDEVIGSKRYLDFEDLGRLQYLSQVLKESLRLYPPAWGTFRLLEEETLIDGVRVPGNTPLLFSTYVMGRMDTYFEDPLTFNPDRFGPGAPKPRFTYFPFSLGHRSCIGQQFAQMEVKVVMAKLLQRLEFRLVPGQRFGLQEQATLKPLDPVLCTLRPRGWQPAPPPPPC
Experimental: The expression of human CH24H was performed using FreeStyle 293 Expression System (Invitrogen). […] After transfection, the cells were cultured at 37° C., 8% CO2 with shaking at 125 rpm for 2 days. The cells were collected by centrifugation, and suspended in a suspension buffer (100 mM potassium phosphate (pH 7.4), 0.1 mM EDTA, 1 mM DTT, 20% Glycerol). The suspended product was disrupted by a polytron homogenizer (manufactured by Kinematica), and centrifuged at 9000×g for 10 min, and the supernatant was collected. The collected supernatant was cryopreserved (−80° C.) as a human CH24H lysate standard product.
For the measurement of CH24H inhibitory activity, using the human CH24H lysate prepared in Experimental Example 2, the amount of 24-HC produced from cholesterol by catalytic activity of CH24H was measured in the presence of a test compound, and compared with that measured in the absence of the test compound. That is, a test compound solution at various concentrations was mixed with a reaction buffer (50 mM potassium phosphate containing 0.1% BSA and Complete, EDTA-free, pH 7.4) and human CH24H lysate. Then, [^14C] cholesterol (53 mCi/mmol specific activity, 15 μM) was added, and CH24H reaction was performed at 37° C. for 5 hr. After completion of the reaction, a quenching solution consisting of chloroform/methanol/distilled water (2:2:1 v/v) was added, and the resulting 24-HC was extracted by shaking. The extract was applied to silica gel thin layer chromatography (ethyl acetate:toluene=4:6), and the obtained ^14C-24HC fraction was measured with BAS2500 (Fujifilm Corporation).
The inhibitory rate (%) was calculated from the ratio of radioactivity in the presence of a test compound relative to the radioactivity in the absence of the test compound.

Q: How did the inhibition at 1 µM turn out when `Cc1cnn(-c2ccncc2N2CCC(C(=O)N(CCF)[C@@H]3CCOC3)CC2)c1` [Example 313, N-(2-fluoroethyl)-1-(4-(4-methyl-1H-pyrazol-1-yl)pyridin-3-yl)-N-((3R)-tetrahydrofuran-3-yl)piperidine-4-carboxamide] was run?
A: 82%

Q: How did the inhibition at 1 µM turn out when `C[C@H]1CN(c2cncnc2-c2ccccc2)CCN1C(=O)CC1CC1` [Example 170, 2-cyclopropyl-1-((2S)-2-methyl-4-(4-phenylpyrimidin-5-yl)piperazin-1-yl)ethanone] was run?
A: 86%

Q: How did the inhibition at 1 µM turn out when `O=C(C1CCN(c2cnccc2-n2cc(Cl)cn2)CC1)N1C2COCC1C2` [Example 35, (1-(4-(4-chloro-1H-pyrazol-1-yl)pyridin-3-yl)piperidin-4-yl)(3-oxa-6-azabicyclo[3.1.1]hept-6-yl)methanone] was run?
A: 98%

Q: `CC1(C)CCCN1C(=O)C1CCN(c2cnccc2-n2cc(Cl)cn2)CC1` [Example 26, (1-(4-(4-chloro-1H-pyrazol-1-yl)pyridin-3-yl)piperidin-4-yl)(2,2-dimethylpyrrolidin-1-yl)methanone] was tested. Which inhibition at 1 µM did it give?
A: 98%

Q: `O=C(C1CCN(c2cnccc2-c2ccccn2)CC1)N1CC(F)(F)C1` [Example 213, (1-(2,4′-bipyridin-3′-yl)piperidin-4-yl) (3,3-difluoroazetidin-1-yl)methanone] was tested. Which inhibition at 1 µM did it give?
A: 93%

Q: How did the inhibition at 1 µM turn out when `Cc1cnn(-c2ccncc2N2CCC(C(=O)N3CC(F)(F)C[C@H]3C#N)CC2)c1` [Example 121, (2S)-4,4-difluoro-1-((1-(4-(4-methyl-1H-pyrazol-1-yl)pyridin-3-yl)piperidin-4-yl)carbonyl)pyrrolidine-2-carbonitrile] was run?
A: 80%

Q: For `O=C(C1CCN(c2cnccc2-n2cc(C3CC3)cn2)CC1)N1CC[C@H](F)C1` [Example 322, (1-(4-(4-cyclopropyl-1H-pyrazol-1-yl)pyridin-3-yl)piperidin-4-yl)((3S)-3-fluoropyrrolidin-1-yl)methanone], which inhibition at 1 µM is on record?
A: 93%

Q: For `CO[C@@H]1C[C@H](C#N)N(C(=O)C2CCN(c3cnccc3-n3cc(C)cn3)CC2)C1` [Example 138, (2R,4R)-4-methoxy-1-((1-(4-(4-methyl-1H-pyrazol-1-yl)pyridin-3-yl)piperidin-4-yl)carbonyl)pyrrolidine-2-carbonitrile], which inhibition at 1 µM is on record?
A: 93%

Q: `O=C(C1CCN(c2cncnc2-c2ccc(F)cc2)CC1)N1CC(F)C1` [Example 278, (3-fluoroazetidin-1-yl)(1-(4-(4-fluorophenyl)pyrimidin-5-yl)piperidin-4-yl)methanone] was tested. Which inhibition at 1 µM did it give?
A: 75%

Q: Which inhibition at 1 µM does the source give for `CNC(=O)C1CCN(c2cnccc2-n2cc(C(F)(F)F)cn2)CC1` [Example 12, N-methyl-1-(4-(4-(trifluoromethyl)-1H-pyrazol-1-yl)pyridin-3-yl)piperidine-4-carboxamide] here?
A: 90%

Q: Which inhibition at 1 µM does the source give for `O=C(C1CCN(c2cnccc2-n2cc(Cl)cn2)CC1)N1CC[C@@H](F)C1` [Example 285, (1-(4-(4-chloro-1H-pyrazol-1-yl)pyridin-3-yl)piperidin-4-yl)((3R)-3-fluoropyrrolidin-1-yl)methanone] here?
A: 82%

Q: How did the inhibition at 1 µM turn out when `Cc1cnn(-c2ccncc2N2[C@@H]3CC[C@H]2C[C@H](C(=O)N(C)C)C3)c1` [Example 13, (3-exo)-N,N-dimethyl-8-(4-(4-methyl-1H-pyrazol-1-yl)pyridin-3-yl)-8-azabicyclo[3.2.1]octane-3-carboxamide] was run?
A: 89%

Q: For `Cc1cn(-c2ccncc2N2CCC(C(=O)NC3CC3)CC2)nc1C` [Example 200, N-cyclopropyl-1-(4-(3,4-dimethyl-1H-pyrazol-1-yl)pyridin-3-yl)piperidine-4-carboxamide], which inhibition at 1 µM is on record?
A: 88%

Q: Which inhibition at 1 µM does the source give for `O=C(C1CCN(c2cnccc2-c2ccccn2)CC1)N1CCC(F)(F)C1` [Example 214, (1-(2,4′-bipyridin-3′-yl)piperidin-4-yl) (3,3-difluoropyrrolidin-1-yl)methanone] here?
A: 89%

Q: `Cc1nnc(-c2ccncc2N2CCC(C(=O)N3CCC[C@@H]3C#N)CC2)s1` [Example 87, (2R)-1-((1-(4-(5-methyl-1,3,4-thiadiazol-2-yl)pyridin-3-yl)piperidin-4-yl)carbonyl)pyrrolidine-2-carbonitrile] was tested. Which inhibition at 1 µM did it give?
A: 98%

Q: How did the inhibition at 1 µM turn out when `CNC(=O)N1CCN(c2cncnc2-c2ccccc2)CC1` [Example 177, N-methyl-4-(4-phenylpyrimidin-5-yl)piperazine-1-carboxamide] was run?
A: 92%

Q: `O=C(NC1CCOCC1)C1CCN(c2cnccc2-n2cc(Cl)cn2)CC1(F)F` (stereo not drawn) [Example 79, 1-(4-(4-chloro-1H-pyrazol-1-yl)pyridin-3-yl)-3,3-difluoro-N-(tetrahydro-2H-pyran-4-yl)piperidine-4-carboxamide] was tested. Which inhibition at 1 µM did it give?
A: 93%

Q: With `CO[C@@H]1CCN(C(=O)C2CCN(c3cnccc3-n3cc(Cl)cn3)CC2)C1` [Example 300, (1-(4-(4-chloro-1H-pyrazol-1-yl)pyridin-3-yl)piperidin-4-yl)((3R)-3-methoxypyrrolidin-1-yl)methanone] as the molecule, how does the inhibition at 1 µM read?
A: 83%

Q: For `O=C(C1CCN(c2cnccc2-n2cc(Br)cn2)CC1)N1CC(F)C1` [Example 319, (1-(4-(4-bromo-1H-pyrazol-1-yl)pyridin-3-yl)piperidin-4-yl) (3-fluoroazetidin-1-yl)methanone], which inhibition at 1 µM is on record?
A: 96%

Q: `O=C(NCc1ccccn1)N1CCN(c2cncnc2-c2ccccc2)CC1` [Example 188, 4-(4-phenylpyrimidin-5-yl)-N-(pyridin-2-ylmethyl)piperazine-1-carboxamide] was tested. Which inhibition at 1 µM did it give?
A: 81%

Q: Which inhibition at 1 µM does the source give for `Cc1cnn(-c2ccncc2N2CCC(C(=O)N3CC(F)C3)CC2)c1` [Example 280, (3-fluoroazetidin-1-yl)(1-(4-(4-methyl-1H-pyrazol-1-yl)pyridin-3-yl)piperidin-4-yl)methanone] here?
A: 78%

Q: `O=C(OCc1ccccc1)N1CCN(c2cncnc2-c2ccccc2)CC1` [Example 169, benzyl 4-(4-phenylpyrimidin-5-yl)piperazine-1-carboxylate] was tested. Which inhibition at 1 µM did it give?
A: 97%

Q: How did the inhibition at 1 µM turn out when `Cc1cnn(-c2ccncc2N2CCN(C(=O)N(CCF)Cc3ccc(F)cc3)CC2)c1` [Example 315, N-(4-fluorobenzyl)-N-(2-fluoroethyl)-4-(4-(4-methyl-1H-pyrazol-1-yl)pyridin-3-yl)piperazine-1-carboxamide] was run?
A: 94%

Q: How did the inhibition at 1 µM turn out when `O=C(CC1CC1)N1C[C@@H]2C[C@H]1CN2c1cnccc1-c1ccccc1` [Example 161, 2-cyclopropyl-1-((1S,4S)-5-(4-phenylpyridin-3-yl)-2,5-diazabicyclo[2.2.1]hept-2-yl) ethanone] was run?
A: 56%

Q: For `CO[C@H]1CCN(C(=O)C2CCN(c3cncnc3-c3ccc(F)cc3)CC2)C1` [Example 303, (1-(4-(4-fluorophenyl)pyrimidin-5-yl)piperidin-4-yl)((3S)-3-methoxypyrrolidin-1-yl)methanone], which inhibition at 1 µM is on record?
A: 85%

Q: `C[C@@H]1CN(c2cncnc2-c2ccccc2)CCN1C(=O)OCc1ccccc1` [Example 158, benzyl (2R)-2-methyl-4-(4-phenylpyrimidin-5-yl)piperazine-1-carboxylate] was tested. Which inhibition at 1 µM did it give?
A: 85%

Q: Which inhibition at 1 µM does the source give for `Cc1cnn(-c2ccncc2N2CCC(C(=O)N(C)[C@H]3CCOC3)CC2)c1` [Example 305, N-methyl-1-(4-(4-methyl-1H-pyrazol-1-yl)pyridin-3-yl)-N-((3S)-tetrahydrofuran-3-yl)piperidine-4-carboxamide] here?
A: 85%

Q: `CC1(CNC(=O)C2CCN(c3cnccc3-n3cc(Cl)cn3)CC2)COC1` [Example 31, 1-(4-(4-chloro-1H-pyrazol-1-yl)pyridin-3-yl)-N-((3-methyloxetan-3-yl)methyl)piperidine-4-carboxamide] was tested. Which inhibition at 1 µM did it give?
A: 97%

Q: How did the inhibition at 1 µM turn out when `CN(C(=O)C1CCN(c2cnccc2-n2cc(Cl)cn2)CC1)C1CCOCC1` [Example 54, 1-(4-(4-chloro-1H-pyrazol-1-yl)pyridin-3-yl)-N-methyl-N-(tetrahydro-2H-pyran-4-yl)piperidine-4-carboxamide] was run?
A: 99%

Q: How did the inhibition at 1 µM turn out when `Cc1cnn(-c2ccncc2N2CCC3(CCN(C)C3=O)CC2)c1` [Example 82, 2-methyl-8-(4-(4-methyl-1H-pyrazol-1-yl)pyridin-3-yl)-2,8-diazaspiro[4.5]decan-1-one] was run?
A: 97%

Q: With `Cc1nnc(-c2ccncc2N2CCC(C(=O)N3CCC[C@]3(C)C#N)CC2)s1` [Example 128, (2R)-2-methyl-1-((1-(4-(5-methyl-1,3,4-thiadiazol-2-yl)pyridin-3-yl)piperidin-4-yl)carbonyl)pyrrolidine-2-carbonitrile] as the molecule, how does the inhibition at 1 µM read?
A: 97%

Q: `CO[C@H]1C[C@H](C#N)N(C(=O)C2CCN(c3cnccc3-n3cc(C)cn3)CC2)C1` [Example 144, (2R,4S)-4-methoxy-1-((1-(4-(4-methyl-1H-pyrazol-1-yl)pyridin-3-yl)piperidin-4-yl)carbonyl)pyrrolidine-2-carbonitrile] was tested. Which inhibition at 1 µM did it give?
A: 98%

Q: Which inhibition at 1 µM does the source give for `CO[C@@H]1CCN(C(=O)C2CCN(c3cncnc3-c3ccc(F)cc3)CC2)C1` [Example 304, (1-(4-(4-fluorophenyl)pyrimidin-5-yl)piperidin-4-yl)((3R)-3-methoxypyrrolidin-1-yl)methanone] here?
A: 86%
